Assays:
[1] = tested on: uptake of SOD1 aggregates into neuro-2a cells; experiment: flow cytometric determination of the uptake of fluorescently labeled SOD1 aggregates into neuro-2a cells; assay type: cell-based; conditions: for uptake of fluorescently labeled SOD1 aggregates after treatment with endocytosis inhibitors: flow cytometry, FIG. 3
ALS = conditions: clinical studies, compared to placebo, some individuals; cited from earlier work
[2] = tested on: uptake of SOD1 aggregates into primary cortical neurons; experiment: flow cytometric determination of the uptake of fluorescently labeled SOD1 aggregates into primary cortical neurons; assay type: cell-based; conditions: primary cortical neurons of wild-type mice, treated as for neuro-2a cells, FIG. 7A
Protocol: In order to investigate whether the results in neuro-2a cells can be expanded to primary cortical neurons, isolated, cultured and treated primary cortical neurons of wild-type mice were treated with heparinase and chondroitinase as previously for neuro-2a cells, before they were exposed to DyLight 488-labeled SOD1 aggregates (FIG. 7A). Likewise, the uptake of SOD1 aggregates after blocking with heparin was tested, as previously carried out for neuro-2a cells (FIG. 7A). The uptake of SOD1 aggregates was again quantified by flow cytometry. […] The “***” or “****” above the bars indicate the statistical significance of the results. “***” corresponds to a significance with p≤0.001 and “****” corresponds to a significance with p≤0.0001 in comparison to the control.

prion diseases = conditions: in vivo; cited from earlier work

Compound | uptake of fluorescently labeled SOD1 aggregates after treatment with endocytosis inhibitors ([1]; neuro-2a cells) | further results
CCN(c1nc(N)c(C(=O)N=C(N)N)nc1Cl)C(C)C [EIPA, 5-N-ethyl-N-isopropyl amiloride] | reduced the uptake of SOD1 aggregates significantly | 
Oc1ccc2ccccc2c1SSc1c(O)ccc2ccccc12 [IPA-3, 2,2′-dihydroxy-1,1′-dinaphthyl disulfide] | reduced the uptake of SOD1 aggregates significantly | 
CC1=NN(c2ccccc2)C(=O)C1 [Radicava, edaravone] |  | decrease in bodily function measured by ALSFRS-R (ALS): significantly lower decrease in bodily function compared to placebo
CN(C)CCCN1c2ccccc2Sc2ccc(Cl)cc21 [chloropromazine, Chlorpromazine] | Neither the chloropromazine treatment nor the genistein treatment inhibited the uptake of SOD1 aggregates significantly | 
C=C1[C@@H](C)[C@H]2[C@H](Cc3ccccc3)NC(=O)[C@]23[C@H](OC(C)=O)/C=C/[C@@](C)(O)C(=O)[C@@H](C)C/C=C/[C@H]3[C@@H]1O [cytochalasin D] | significantly inhibited the uptake | 
O=C(N/N=C/c1ccc(O)c(O)c1)c1cc2ccccc2cc1O [dynasore] | inhibited the uptake of SOD1 aggregates | 
O=c1c(-c2ccc(O)cc2)coc2cc(O)cc(O)c12 [genistein, Genistein] | Neither the chloropromazine treatment nor the genistein treatment inhibited the uptake of SOD1 aggregates significantly | 
[Na+].[O-][Cl+2]([O-])[O-] [sodium chlorate] |  | uptake of SOD1 aggregates after sodium chlorate treatment [1]: reduced the uptake of SOD1 aggregates in a dose-dependent manner
heparin |  | uptake of DyLight 488-labeled SOD1 aggregates into primary cortical neurons [2]: inhibits uptake of SOD1 aggregates into primary cortical neurons; uptake of SOD1 aggregates pre-treated with heparin ([1]; aggregates treated at 4° C. with 1 mg/mL heparin for 6 hours, neuro-2a cells incubated 6 hours, FIG. 4B): inhibited the uptake of both wild-type and mutated SOD1 aggregates
methyl-β-cyclodextrin | significantly reduced the uptake of SOD1 aggregates | 
pentosan polysulfate sodium [PPS] |  | survival of infected animals (prion diseases): extending the survival of infected animals after intracerebroventricular perfusion in a dose-dependent manner; cellular uptake of fluorescently labeled wild-type and mutated SOD1 aggregates after PPS treatment ([1]; neuro-2a cells, increasing PPS concentrations, FIG. 5): competitively inhibited the cellular uptake of fluorescently labeled wild-type and mutated SOD1 aggregates at non-cytotoxic concentrations

Source: US20240033282A1, “METHOD FOR IDENTIFYING AND/OR FOR OBTAINING AN ACTIVE SUBSTANCE FOR THE TREATMENT AND THERAPY OF FAMILIAL AMYOTROPHIC LATERAL SCLEROSIS, AND USE OF AN ACTIVE SUBSTANCE FOR THE TREATMENT OF THIS DISEASE” (Forschungszentrum Juelich GmbH, priority 2020, published 2024)
